Laboratory results reported in patent publication US7601674B2, “α-oxygenated or α-thiolated carboxylic acid phenethylamide derivatives” (priority 2001, dated 2009).

Columns and labels:
Assay type in all cases: in vivo
[1] = test system: Phytophthora; assay: D-2b Action against Phytophthora on tomato plants, systemic action; details: test D-2b systemic (soil drench), untreated plants attack 80-100%, read-out: inhibition of fungal infestation
Method: (§1) D-2: Action Against Phytophthora on Tomato Plants
After a cultivation period of 3 weeks, tomato plants are watered with a spray mixture (0.02% active ingredient based on the volume of the soil) prepared from a wettable powder formulation of the test compound. […] After 96 hours, the treated plants are infected with a sporangia suspension of the fungus. Fungus infestation is evaluated after incubation of the infected plants for 4 days at 90-100% relative humidity and +20° C.

[2] = test system: Plasmopara viticola; assay: D-1b Action against Plasmopara viticola on vines, residual-curative action; details: vine seedlings, test D-1b residual-curative, untreated plants attack 80-100%, read-out: inhibition of fungal infestation
Method: (§2) D-1: Action Against Plasmopara viticola on Vines
b) Residual-curative Action
Vine seedlings are infected at the 4- to 5-leaf stage with a sporangia suspension of the fungus. After incubation for 24 hours in a humidity chamber at 95-100% relative humidity and […], the infected plants are dried and sprayed with a spray mixture (0.02% active ingredient) prepared from a wettable powder formulation of the test compound. After the spray coating has dried, the treated plants are placed in the humidity chamber again. Fungus infestation is evaluated 6 days after infection.

[3] = test system: Phytophthora; assay: D-2a Action against Phytophthora on tomato plants, residual-protective action; details: test D-2a residual-protective, untreated plants attack 80-100%, read-out: inhibition of fungal infestation
Method: as §1
(§3) a) Residual-protective Action
After a cultivation period of 3 weeks, tomato plants are sprayed with a spray mixture (0.02% active ingredient) prepared from a wettable powder formulation of the test compound. After 48 hours, the treated plants are infected with a sporangia suspension of the fungus. Fungus infestation is evaluated after incubation of the infected plants for 5 days at 90-100% relative humidity and +20° C.

[4] = test system: Plasmopara viticola; assay: D-1a Action against Plasmopara viticola on vines, residual-protective action; details: vine seedlings, test D-1a residual-protective, untreated plants attack 80-100%, read-out: inhibition of fungal infestation
Method: as §2, §3
Vine seedlings are sprayed at the 4- to 5-leaf stage with a spray mixture (0.02% active ingredient) prepared from a wettable powder formulation of the test compound. After 24 hours, the treated plants are infected with a sporangia suspension of the fungus. Fungus infestation is evaluated after incubation for 6 days at 95-100% relative humidity and +20° C.

[5] = test system: Phytophthora; assay: D-3a Action against Phytophthora on potato plants, residual-protective action; details: potato plants (Bintje), test D-3a residual-protective, untreated plants attack 80-100%, read-out: inhibition of fungal infestation
Method: (§4) D-3: Action Against Phytophthora on Potato Plants
as §3
(§5) 2-3 week old potato plants (Bintje variety) are sprayed with a spray mixture (0.02% active ingredient) prepared from a wettable powder formulation of the test compound. After 48 hours, the treated plants are infected with a sporangia suspension of the fungus. Fungus infestation is evaluated after incubation of the infected plants for 4 days at 90-100% relative humidity and +20° C.

[6] = test system: Phytophthora; assay: D-3b Action against Phytophthora on potato plants, systemic action; details: potato plants (Bintje), test D-3b systemic (soil drench), untreated plants attack 80-100%, read-out: inhibition of fungal infestation
Method: as §4
as §5, with “watered” for “sprayed”, “ingredient based on the volume of the soil)” for “ingredient)”, “compound. […]” for “compound.”, “C. Fungal infestation is effectively controlled with compounds of Tables 1 to 64.” for “C.”

Measured: inhibition at 200 ppm

C#CCOc1ccc(CCNC(=O)C(O)COc2ccc(Cl)cc2)cc1OC (stereo not shown) [Compound E1.24, 3-(4-Chloro-phenoxy)-2-hydroxy-N-[2-(3-methoxy-4-prop-2-ynyloxy-phenyl)-ethyl]-propionamide]
80 to 100%: [1] | [2] | [3] | [4]

C#CCOc1ccc(CCNC(=O)C(COc2ccc(Cl)cc2)OCC#C)cc1OC (stereo not shown) [Compound E1.26]
80 to 100%: all assays above
